Source: patent US11198710B2, “Transgenic plant having herbicide resistance” (priority 2016, dated 2021)

What was measured:
TaQ8GTB9 = test: Pyroxasulfone metabolizing activity based on fatty acid content in cultured rice cells; type: cell-based, wheat; settings: cultured rice cells with TaQ8GTB9 gene; 10^−7M or 10^−6M pyroxasulfone, liquid culture 14 to 17 days
Description: The transgenic cultured rice cells thus prepared were used for liquid culture in the presence of pyroxasulfone. Pyroxasulfone was added to the liquid medium as an acetone solution. The final acetone concentration was 0.1%. When liquid culture was carried out, cultured rice cells transformed with KLB-279 (a plasmid comprising Act1p (rice actin 1 promoter)::sGFP::NOSt incorporated into the MCS of PalSelect R-4) were designated as the control samples. Liquid culture was carried out as described below. […]
(§1) Fatty acid was extracted using undecenoic acid (C11:1) as an internal standard. As analytical standards, Supelco FAME mix containing C14:0, C16:0, C16:1, C18:0, C18:1, C18:2, C18:3, C20:0, C22:0, C22:1, and C24:0 and other fatty acid methyl esters (C11:1, C15:0, C20:1, and C26:0) were used, and calibration curves thereof were prepared, followed by quantification. […] Quantitative and qualitative analyses were carried out as methyl esters, although fatty acid methyl esters were converted into fatty acids at the time of quantitative analysis. […]

cultured rice cells = settings: culture in a pyroxasulfone-containing liquid medium; cited from earlier work
[1] = tested on: Arabidopsis thaliana plant comprising the TaQ8GTC0 gene introduced therein; test: Sensitivity of Arabidopsis thaliana comprising the TaQ8GTC0 gene to herbicides on MS agar medium; type: in vivo; settings: for growth of the Arabidopsis thaliana plant comprising the TaQ8GTC0 gene: KLB-718 1-1-5, 22° C.
Description: A medium was prepared as described below, so as to examine the pyroxasulfone resistance of the Arabidopsis thaliana plant comprising the TaQ8GTC0 gene introduced therein. At the outset, the Murashige-Skoog (MS) media (1 bag), thiamin hydrochloride (3 mg), nicotinic acid (5 mg), pyridoxin hydrochloride (0.5 mg), and sucrose (10 g) were added into a 1-liter beaker, a pH was adjusted to 5.7, the volume of the content was adjusted to 1 liter, and 8 g (0.8%) of agar was added. The resultant was autoclaved and cooled to room temperature, and pyroxasulfone (an acetone solution) was added thereto. A 30-ml fraction thereof was fractionated into a No. 2 square plate to prepare an MS medium containing pyroxasulfone at a given concentration.
Pyroxasulfone sensitivity of transgenic Arabidopsis thaliana plants was tested with the use of the medium prepared above as described below. A necessary amount of Arabidopsis thaliana dry seeds was agitated in 70% ethanol for 2 minutes and in hypochlorous acid containing 0.02% Triton-X-100 for 15 minutes, followed by washing with sterile water 10 times. Subsequently, the seeds were suspended in 1 ml of the autoclaved 0.1% agar solution, the suspension was thoroughly mixed to prepare a homogeneous solution, and a total of 30 seeds were each placed on the medium surface. The resultant was sealed with a surgical tape, allowed to stand at 4° C. for 2 days, and then transferred to 22° C. for germination.
On the basis of the concentrations above, sensitivity of the Arabidopsis thaliana plant comprising the TaQ8GTC0 gene introduced therein to VLCFAE-inhibiting herbicides was examined. The results are show in FIGS. 13 and 14. The photographs shown in FIGS. 13 and 14 were taken after the plants were grown at 22° C. for 14 days.

ZmY12862 = test: Pyroxasulfone metabolizing activity based on fatty acid content in cultured rice cells; type: cell-based, maize; settings: cultured rice cells with ZmY12862 gene; 10^−7M or 10^−6M pyroxasulfone, liquid culture 14 to 17 days
Description: (§2) The transgenic cultured rice cells thus prepared were used for liquid culture in the presence of pyroxasulfone. Pyroxasulfone was added to the liquid medium as an acetone solution. The final acetone concentration was 0.1%. When liquid culture was carried out, cultured rice cells transformed with KLB-279 (a plasmid comprising Act1p (rice actin 1 promoter)::sGFP::NOSt incorporated into the MCS of PalSelect R-4) were designated as the control samples. Liquid culture was carried out as described below.
(§3) A bag of mixed salts for Murashige-Skoog medium (MS inorganic salts), 1 ml of 10 mg/ml thiamin hydrochloride, 1 ml of 5 mg/ml nicotinic acid, 1 ml of 10 mg/ml pyridoxine hydrochloride, 1 ml of 2 mg/ml glycine, 1 ml of 0.2 mg/ml 2,4-D, 30 g of sucrose, and 1 ml of 50 mg/ml myo-inositol were added into a 1-liter beaker, a pH was adjusted to 5.7, and the volume was precisely adjusted to 1,000 nil with the addition of distilled water, followed by autoclave. After 0.05 ml of pyroxasulfone was added to a 200-ml erlenmeyer flask containing 50 ml of the liquid medium, about 0.5 g of the control cultured rice cells proliferated in a solid medium of the same composition as described above further supplemented with 3 g of gellan gum and 0.25 μM BS or about 0.5 g of the transgenic cultured rice cells prepared as described above were added to the liquid medium, and culture was carried out for 14 to 17 days. After the completion of culture, the liquid medium was removed, and cultured rice cells were recovered.
(§4) One month after the transformation, cultured rice cells comprising the GST genes introduced therein were selected with the use of 0.25 μM bispyribac sodium (BS). Subsequently, the fresh cultured rice cells proliferated in the selection medium were mass-cultured in a conical beaker for approximately 1 month and then used for liquid culture in a pyroxasulfone-containing medium. When conducting liquid culture, the concentration was adjusted to 10^−7M or 10^−6M, so that pyroxasulfone would influence the fatty acid content in the cultured rice cells (Y. Tanetani et al., Pestic. Biochem. Physiol., 95, 47-55, 2009). […]
as §1

ZmB6T8R4 = test: as above; type: cell-based, maize; settings: cultured rice cells with ZmB6T8R4 gene; 10^−7M or 10^−6M pyroxasulfone, liquid culture 14 to 17 days
Description: as §2, §3, §4, §1

ZmQ9ZP61 = test: as above; type: cell-based, maize; settings: cultured rice cells with ZmQ9ZP61 gene; 10^−7M or 10^−6M pyroxasulfone, liquid culture 14 to 17 days
Description: as §2, §3, §4, §1

ZmM16901 = molecular target: T1, ZmM16901 (Zea mays, UniProt P12653); test: as above; type: cell-based, maize; settings: cultured rice cells with ZmM16901 gene; 10^−7M or 10^−6M pyroxasulfone, liquid culture 14 to 17 days
T1 construct: expressed in transfected cells; host or cells: cultured rice cells (Agrobacterium EHA105, PalSelect R-4-GST)
Description: as §2, §3, §4, §1

T1 sequence (P12653 whole entry): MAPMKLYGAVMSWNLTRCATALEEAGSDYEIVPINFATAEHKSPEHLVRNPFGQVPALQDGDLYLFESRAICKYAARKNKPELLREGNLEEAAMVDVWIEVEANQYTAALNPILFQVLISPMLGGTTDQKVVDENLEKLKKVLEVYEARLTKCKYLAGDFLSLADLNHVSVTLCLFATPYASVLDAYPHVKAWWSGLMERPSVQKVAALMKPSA

For `Cn1nc(C(F)(F)F)c(CS(=O)(=O)C2=NOC(C)(C)C2)c1OC(F)F` [Pyroxasulfone, 3-[5-(difluoromethoxy)-1-methyl-3-(trifluoromethyl)pyrazol-4-ylmethylsulfonyl]-4,5-dihydro-5,5-dimethyl-1,2-oxazole], the “pyroxasulfone metabolizing activity (C15:0 and VLCFA contents)” value (shortened to “pyroxasulfone metabolizing activity”) (TaQ8GTB9) is given as “no pyroxasulfone metabolizing activity”, the “C15:0 (pentadecanoic acid) content” value (cultured rice cells) is given as “remarkably increased” and the “content of very-long-chain fatty acid (VLCFA)” value (cultured rice cells) is given as “drastically decreases”. For the same compound, the “sensitivity of the Arabidopsis thaliana plant comprising the TaQ8GTC0 gene to VLCFAE-inhibiting herbicides” value ([1]; KLB-718 1-1-5, concentrations of Table 5, 22° C., 14 days) was “strong resistance”, the “pyroxasulfone resistance relative to wild-type (Columbia-0)” value ([1]; all 7 lines used in the test) was “at least 10 times” and the “growth of the Arabidopsis thaliana plant comprising the TaQ8GTC0 gene” value ([1]; pyroxasulfone 1 μM, 14 days) was “in the same manner as with the Control”. For the same compound, the “growth of the Arabidopsis thaliana plant comprising the TaQ8GTC0 gene” value ([1]; pyroxasulfone 10 μM, 14 days) was “sufficiently grew”, the “pyroxasulfone metabolizing activity” value (ZmY12862) was “no pyroxasulfone metabolizing activity” and the “pyroxasulfone metabolizing activity” value (ZmB6T8R4) was “no pyroxasulfone metabolizing activity”. For the same compound, the “pyroxasulfone metabolizing activity” value (ZmQ9ZP61) was “no pyroxasulfone metabolizing activity” and the “pyroxasulfone metabolizing activity” value (ZmM16901) was “no pyroxasulfone metabolizing activity”.
